Reference: ChEMBL document CHEMBL5149975, “Freshwater Fungi as a Source of Chemical Diversity: A Review” (J Nat Prod, 2021)
In brackets after ≈: the same amount, converted by molar mass.

Tests used:
Staphylococcus aureus [1] = assay: Antibacterial activity against Staphylococcus aureus ATCC 6538 inhibition of zones at 50 ug per disk by standard disk assay; type: functional; details: read-out: IZ
[2] = target: T1, Tyrosine-protein phosphatase non-receptor type 1 (Homo sapiens, UniProt P18031); assay: Inhibition of human recombinant PTP1B (1 to 322 residues) expressed in Escherichia coli using pNPP as substrate incubated for 10 mins followed by substrate addition and measured after 30 mins by microplate reader based analysis
T1 sequence (P18031 whole entry): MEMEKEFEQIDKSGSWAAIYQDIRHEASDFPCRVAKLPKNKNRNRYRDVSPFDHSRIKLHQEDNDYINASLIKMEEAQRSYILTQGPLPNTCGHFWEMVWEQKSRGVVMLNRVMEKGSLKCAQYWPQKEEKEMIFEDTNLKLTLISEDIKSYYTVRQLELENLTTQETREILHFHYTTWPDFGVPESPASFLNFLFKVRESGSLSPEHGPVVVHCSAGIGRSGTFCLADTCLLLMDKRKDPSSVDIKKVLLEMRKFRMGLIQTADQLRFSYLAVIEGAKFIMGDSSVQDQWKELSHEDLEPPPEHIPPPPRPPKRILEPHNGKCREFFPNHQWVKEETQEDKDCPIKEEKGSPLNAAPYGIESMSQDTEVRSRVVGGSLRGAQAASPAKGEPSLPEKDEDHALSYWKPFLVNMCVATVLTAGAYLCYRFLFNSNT

[3] = target: T2, Tyrosine-protein phosphatase non-receptor type 1 (Homo sapiens) (UniProt P18031); assay: Inhibition of human recombinant PTP1B (1 to 322 residues) expressed in Escherichia coli using pNPP as substrate at 36 uM incubated for 10 mins followed by substrate addition and measured after 30 mins by microplate reader based analysis relative to control; details: time 40.0 min
T2 sequence (whole entry): T1 sequence (P18031 whole entry)

Staphylococcus aureus [4] = assay: Antibacterial activity against Staphylococcus aureus ATCC25923 measured after 18 hrs by agar dilution method; type: functional
Candida albicans = assay: Antifungal activity against clinical isolate Candida albicans measured after 24 hrs by agar dilution method; type: functional
Pseudomonas aeruginosa = assay: Antimicrobial activity against Pseudomonas aeruginosa; type: functional
[5] = target: T1, Tyrosine-protein phosphatase non-receptor type 1; assay: Inhibition of PTP1B (unknown origin)
Bacillus cereus = assay: Antibacterial activity against Bacillus cereus by microtiter plate method; type: functional
Vibrio anguillarum = assay: Antibacterial activity against Vibrio anguillarum by microtiter plate method; type: functional
Vibrio parahaemolyticus = assay: Antibacterial activity against Vibrio parahaemolyticus by microtiter plate method; type: functional
Staphylococcus aureus [6] = assay: Antimicrobial activity against Staphylococcus aureus; type: functional
[7] = Antioxidant activity of the compound by DPPH assay; type: functional
[8] = system: Mycolicibacterium smegmatis; assay: Antimicrobial activity against Mycobacterium smegmatis; type: functional
[9] = target: T2, Tyrosine-protein phosphatase non-receptor type 1 (Homo sapiens); assay: Inhibition of PTP1B (unknown origin) at 15.7 uM relative control

## O=C1c2c(O)cc(CO)cc2COc2c(O)c(O)cc(O)c21
Staphylococcus aureus [1]
  zone of inhibition at 50 µg/disc: 11 mm

## COc1cc(C)c(Oc2cc(C)cc(O)c2O)c(O)c1
[2]
  IC50: 13 µM

## COc1cc(O)cc(C)c1Oc1cc(C)cc(O)c1O
[3]
  inhibition: 32%

## C=C1CCC[C@@]2(C)C[C@H](O)[C@H](C(C)(C)O)C[C@@]12O
Staphylococcus aureus [4]
  MIC: > 128 µg/mL
Candida albicans
  MIC: > 128 µg/mL

## C=C1CCC[C@]2(C)C1C[C@@H](C(C)(C)O)C[C@@H]2O (stereo partly drawn)
Staphylococcus aureus [4]
  MIC: > 128 µg/mL
Candida albicans
  MIC: > 128 µg/mL

## CC1(C)C=Cc2c(ccc3c2N[C@]2(C[C@@]45NC(=O)[C@]6(CCCN6C4=O)CC5C2(C)C)C3=O)O1 (stereo partly drawn)
Pseudomonas aeruginosa
  MIC: 0.8 µM (≈ 0.358 µg/mL)

## COC(=O)[C@@]12Oc3c(-c4ccc5c(c4O)C(=O)C4=C(O)C[C@H](C)[C@H](O)[C@]4(C(=O)OC)O5)ccc(O)c3C(=O)C1=C(O)C[C@H](C)[C@H]2O
[5]
  IC50: 5.9 µM

## COC(=O)[C@@]12Oc3ccc(Oc4cccc5c4C(=O)C4=C(O)C[C@H](C)[C@H](O)[C@]4(C(=O)OC)O5)c(O)c3C(=O)C1=C(O)C[C@H](C)[C@H]2O
[5]
  IC50: 6 µM

## COc1ccc(OC)c2c1OCc1cc(C)cc(O)c1C2=O
Staphylococcus aureus [1]
  zone of inhibition at 50 µg/disc: 11 mm

## C=C1CCC[C@@]2(C)CC(O)[C@H](C(C)(C)O)C[C@]12O (stereo partly drawn)
Staphylococcus aureus [4]
  MIC: > 128 µg/mL
Candida albicans
  MIC: > 128 µg/mL

## O=c1[nH]c2ccccc2c(-c2ccccc2)c1O
Bacillus cereus
  MIC: 25 µM (≈ 5.93 µg/mL)
Vibrio anguillarum
  MIC: 25 µM (≈ 5.93 µg/mL)
Vibrio parahaemolyticus
  MIC: 25 µM (≈ 5.93 µg/mL)

## COc1cc(O)c2c(c1C)[C@H](C)C(=O)OC2=O
Staphylococcus aureus [6]
  MIC: 33 µg/mL

## Cc1cc(O)c2c(c1)COc1c(O)ccc(O)c1C2=O
Staphylococcus aureus [1]
  zone of inhibition at 50 µg/disc: 11 mm

## O=c1c(O)c(-c2ccc(O)c(O)c2)oc2cc(O)cc(O)c12 [QUERCETIN]
[7]
  IC50: 5.7 µM

## COc1cc(C)c(Oc2cc(C)cc(O)c2)c(O)c1 [CYPERIN]
[2]
  IC50: 17 µM

## C=C1CCC[C@@]2(C)CC[C@H](C(C)(C)O)C[C@]12O
Staphylococcus aureus [4]
  MIC: > 128 µg/mL
Candida albicans
  MIC: > 128 µg/mL

## O=C1C=C2OC3(O)CC(=O)c4c(O)cccc4C3=C2c2cccc(O)c21 (stereo not drawn)
Staphylococcus aureus [6]
  MIC: 86 µM
[8]
  MIC: 172 µM (≈ 59.9 µg/mL)

## COc1ccc(OC)c2c1OCc1cc(CO)cc(O)c1C2=O
Staphylococcus aureus [1]
  zone of inhibition at 50 µg/disc: 11 mm

## C=C1C[C@@H](O)C[C@@]2(C)CC[C@H](C(C)(C)O)CC12 (stereo partly drawn)
Staphylococcus aureus [4]
  MIC: > 128 µg/mL
Candida albicans
  MIC: > 128 µg/mL

## COC(=O)[C@@]12Oc3ccc(-c4ccc5c(c4O)C(=O)C4=C(O)C[C@H](C)[C@H](O)[C@]4(C(=O)OC)O5)c(O)c3C(=O)C1=C(O)C[C@H](C)[C@H]2O
[5]
  IC50: 9.6 µM

## COC(=O)[C@H]1C[C@@H](C)[C@H]2[C@@H](C=C[C@H](C)[C@@H]2/C=C/C=C/C(=O)O)[C@@H]1C
[7]
  IC50: 2.8 µM

## COC(=O)[C@@]12Oc3ccc(-c4ccc5c(c4O)C(=O)C4=C(O)C[C@H](C)[C@@H](O)[C@]4(C(=O)OC)O5)c(O)c3C(=O)C1=C(O)C[C@H](C)[C@H]2O
[9]
  inhibition: 40%

## COc1cc(O)c(OC)c2c1C(=O)c1c(O)cc(C)cc1CO2
Staphylococcus aureus [1]
  zone of inhibition at 50 µg/disc: 11 mm

## C=C1CCC[C@@]2(C)CC[C@H](C(C)(C)O)CC12 (stereo partly drawn)
Staphylococcus aureus [4]
  MIC: > 128 µg/mL
Candida albicans
  MIC: > 128 µg/mL
